Results from patent US9556148B2, “N-cyanomethylamides as inhibitors of janus kinase” (CADILA HEALTHCARE LIMITED, priority 2013, dated 2017).

Experiments:
[1] = target: recombinant purified human JAK1 (Homo sapiens (Human), UniProt P23458); test: in vitro JAK kinase assay on ADP Glo platform, JAK1; format: biochemical; details: 50 μM ATP, 1 hr at room temperature
Protocol: (§1) NCEs were screened using in vitro JAK (1, 2 and 3) kinase assay on ADP Glo platform (Promega). Fixed amount of recombinant purified human JAK (25 ng of JAK1 and 10 ng of JAK2 and JAK3 per reaction, from Life Technologies Ltd) were incubated with increasing concentration of NCEs in 1× kinase reaction buffer (40 mM Tris-Cl, pH7.5, 20 mM MgCl2, 0.1 mg/ml BSA and 50 μM DTT). Enzymatic reaction was initiated by adding a substrate cocktail containing 50 μM of ATP (final concentration) and 5 μg for JAK1 and 2.5 μg for JAK2 and JAK3 of polyGln4Tyr1 (Signal Chem) in total 25 μl of reaction in 96 well plate. The reaction was incubated at room temperature for 1 hr.
(§2) After 1 hr of incubation equal volume (25 μl per reaction) of ADP Glo was added and incubated at room temperature for 40 min.
(§3) This was followed by addition of kinase detection reagent (50 μl per reaction) and incubation at room temperature for 30 min. Finally, plate was read for luminescence at an integration time of 500 millisecond per well.
(§4) Data were plotted taking Enzyme with no inhibitor set as the 100% kinase activity. IC50 values were calculated using Graph Pad Prism software.

[2] = target: recombinant purified human JAK2 (Homo sapiens (Human), UniProt O60674); test: in vitro JAK kinase assay on ADP Glo platform, JAK2; format: biochemical; details: 50 μM ATP, 1 hr at room temperature; read-out: JAK-2 IC50
Protocol: as §1, §2, §3, §4

[3] = tested on: PGPS arthritis, PAW inflammation; test: Peptidogylcan Polysaccharide Polymers (PGPS) arthritis; format: in vivo, Sprague dawley rats; details: rats, values for day 16
Protocol: Female Sprague dawley rats were primed with an intra-articular injection of 20 μl of PGPS at 0.5 mg/ml of rhamnose in the right ankle. At 2 weeks the ankle diameters were measured with plethysmometer and rats assigned to groups of similar distribution of initial joint diameters. Rats then received their first dose of compound followed 1 h later by an i.v. injection of 0.5 ml of PGPS (0.5 mg/ml of rhamnose) in the tail vein. Compounds were dosed at 10 mg/kg and ankle diameters measured for 3 days [i.e. day 15, 16, 17]. Values are given for day 16.

[4] = target: recombinant purified human JAK3 (Homo sapiens (Human), UniProt P52333); test: in vitro JAK kinase assay on ADP Glo platform, JAK3; format: biochemical; details: 50 μM ATP, 1 hr at room temperature; read-out: JAK-3 IC50
Protocol: as §1, §2, §3, §4

[5] = target: JAK-3 (Homo sapiens (Human), UniProt P52333); details: reported in WO 2008109943; read-out: reported in vitro JAK-3 inhibition; cited from earlier work
[6] = target: JAK 2 (Homo sapiens (Human), UniProt O60674); details: reported in WO 2008109943; read-out: reported in vitro JAK 2 inhibition; cited from earlier work
Chain of JAK 2 (O60674 whole entry, species assumed): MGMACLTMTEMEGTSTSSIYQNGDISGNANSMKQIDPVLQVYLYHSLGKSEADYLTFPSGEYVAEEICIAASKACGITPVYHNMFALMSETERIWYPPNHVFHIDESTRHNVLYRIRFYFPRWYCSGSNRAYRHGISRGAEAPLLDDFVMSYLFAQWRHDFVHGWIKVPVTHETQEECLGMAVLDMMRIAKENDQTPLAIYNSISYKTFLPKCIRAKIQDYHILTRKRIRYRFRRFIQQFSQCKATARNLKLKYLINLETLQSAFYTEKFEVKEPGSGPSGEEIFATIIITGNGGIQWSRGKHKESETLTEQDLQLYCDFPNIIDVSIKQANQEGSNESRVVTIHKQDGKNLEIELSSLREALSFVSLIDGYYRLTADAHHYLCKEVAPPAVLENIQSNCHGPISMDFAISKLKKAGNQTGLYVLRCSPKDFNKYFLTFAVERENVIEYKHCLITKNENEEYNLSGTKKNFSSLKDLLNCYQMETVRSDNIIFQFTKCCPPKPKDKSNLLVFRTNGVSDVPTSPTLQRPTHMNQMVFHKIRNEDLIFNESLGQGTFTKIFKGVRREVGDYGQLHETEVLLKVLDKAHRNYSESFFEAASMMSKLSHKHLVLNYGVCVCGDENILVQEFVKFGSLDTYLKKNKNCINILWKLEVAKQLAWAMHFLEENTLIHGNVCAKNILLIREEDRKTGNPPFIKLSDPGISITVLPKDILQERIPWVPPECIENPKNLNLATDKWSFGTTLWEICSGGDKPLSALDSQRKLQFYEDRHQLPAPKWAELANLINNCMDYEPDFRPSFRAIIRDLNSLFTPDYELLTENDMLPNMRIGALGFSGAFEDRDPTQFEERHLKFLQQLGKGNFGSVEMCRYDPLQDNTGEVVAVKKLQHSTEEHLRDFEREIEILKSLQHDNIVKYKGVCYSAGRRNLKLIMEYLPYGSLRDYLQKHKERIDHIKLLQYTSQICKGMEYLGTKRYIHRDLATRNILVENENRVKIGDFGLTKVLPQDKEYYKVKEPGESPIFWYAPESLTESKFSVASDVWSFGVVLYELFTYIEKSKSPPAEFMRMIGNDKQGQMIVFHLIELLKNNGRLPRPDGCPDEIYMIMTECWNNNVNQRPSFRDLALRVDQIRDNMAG

Chain of recombinant purified human JAK2 (O60674 whole entry): as the sequence (O60674 whole entry, species assumed) above
Chain of recombinant purified human JAK3 (P52333 whole entry): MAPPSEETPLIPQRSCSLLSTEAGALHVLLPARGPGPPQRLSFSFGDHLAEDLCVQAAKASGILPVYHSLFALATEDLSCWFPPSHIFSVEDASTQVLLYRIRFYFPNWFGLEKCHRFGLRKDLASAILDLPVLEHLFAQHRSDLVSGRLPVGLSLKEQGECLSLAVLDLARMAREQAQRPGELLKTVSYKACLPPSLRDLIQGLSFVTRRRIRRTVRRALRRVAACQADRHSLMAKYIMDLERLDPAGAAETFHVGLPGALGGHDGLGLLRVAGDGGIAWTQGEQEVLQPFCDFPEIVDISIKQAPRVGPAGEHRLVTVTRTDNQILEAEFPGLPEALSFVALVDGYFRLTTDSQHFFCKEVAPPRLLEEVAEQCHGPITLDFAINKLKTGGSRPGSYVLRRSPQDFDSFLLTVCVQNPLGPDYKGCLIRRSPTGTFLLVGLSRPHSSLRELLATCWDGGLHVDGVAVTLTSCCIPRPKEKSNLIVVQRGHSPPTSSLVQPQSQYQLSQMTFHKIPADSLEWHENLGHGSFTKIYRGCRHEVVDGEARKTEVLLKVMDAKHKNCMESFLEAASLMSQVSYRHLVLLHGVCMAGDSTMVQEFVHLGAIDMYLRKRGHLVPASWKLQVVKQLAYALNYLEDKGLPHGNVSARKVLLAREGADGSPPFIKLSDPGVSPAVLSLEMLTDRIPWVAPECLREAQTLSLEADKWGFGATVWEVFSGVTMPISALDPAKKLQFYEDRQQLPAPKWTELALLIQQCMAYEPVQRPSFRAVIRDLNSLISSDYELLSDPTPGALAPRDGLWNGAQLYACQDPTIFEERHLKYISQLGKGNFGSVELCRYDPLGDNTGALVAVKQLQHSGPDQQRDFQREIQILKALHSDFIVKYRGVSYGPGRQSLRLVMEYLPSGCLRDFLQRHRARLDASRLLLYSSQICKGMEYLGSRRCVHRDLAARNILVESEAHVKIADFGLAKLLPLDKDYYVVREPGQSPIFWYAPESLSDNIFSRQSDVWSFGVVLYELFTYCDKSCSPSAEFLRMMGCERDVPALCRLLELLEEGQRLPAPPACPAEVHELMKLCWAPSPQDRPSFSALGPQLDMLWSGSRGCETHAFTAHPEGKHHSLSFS
Chain of recombinant purified human JAK1 (P23458 whole entry): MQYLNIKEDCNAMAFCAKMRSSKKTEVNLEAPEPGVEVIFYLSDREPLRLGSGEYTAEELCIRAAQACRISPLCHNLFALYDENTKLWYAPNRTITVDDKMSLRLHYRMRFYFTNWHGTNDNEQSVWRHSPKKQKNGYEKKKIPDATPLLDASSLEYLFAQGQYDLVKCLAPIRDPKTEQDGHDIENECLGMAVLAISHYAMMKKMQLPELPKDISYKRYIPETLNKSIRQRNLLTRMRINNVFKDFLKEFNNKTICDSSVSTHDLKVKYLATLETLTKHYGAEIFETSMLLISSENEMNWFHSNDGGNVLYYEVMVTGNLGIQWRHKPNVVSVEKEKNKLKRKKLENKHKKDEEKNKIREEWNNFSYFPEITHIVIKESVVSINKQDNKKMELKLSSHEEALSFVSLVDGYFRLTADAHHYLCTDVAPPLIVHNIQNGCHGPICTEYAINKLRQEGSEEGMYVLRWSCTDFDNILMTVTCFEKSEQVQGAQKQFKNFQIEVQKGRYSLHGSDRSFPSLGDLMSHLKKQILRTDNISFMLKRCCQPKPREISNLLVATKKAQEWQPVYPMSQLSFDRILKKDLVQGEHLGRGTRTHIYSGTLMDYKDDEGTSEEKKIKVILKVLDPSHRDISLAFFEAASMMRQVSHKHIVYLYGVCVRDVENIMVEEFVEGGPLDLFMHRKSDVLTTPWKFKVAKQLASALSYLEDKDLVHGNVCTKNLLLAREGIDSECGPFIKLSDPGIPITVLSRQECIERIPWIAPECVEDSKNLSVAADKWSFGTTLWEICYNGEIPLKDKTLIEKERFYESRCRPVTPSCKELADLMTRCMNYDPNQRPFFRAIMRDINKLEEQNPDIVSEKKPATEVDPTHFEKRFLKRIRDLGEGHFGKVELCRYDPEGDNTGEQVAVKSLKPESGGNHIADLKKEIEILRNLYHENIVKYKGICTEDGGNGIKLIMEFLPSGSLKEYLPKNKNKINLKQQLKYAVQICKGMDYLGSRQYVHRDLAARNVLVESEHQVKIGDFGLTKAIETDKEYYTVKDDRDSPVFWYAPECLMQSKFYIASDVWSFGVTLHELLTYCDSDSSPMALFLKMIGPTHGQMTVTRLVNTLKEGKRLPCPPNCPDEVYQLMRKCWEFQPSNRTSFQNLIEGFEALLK
Chain of JAK-3 (P52333 whole entry, species assumed): as the sequence (P52333 whole entry) above

| IC50 [1] | IC50 [2] | IC50 [4] | Compound | % Reduction in PAW inflammation at dose 10 mg/Kg [3] | IC50 [5] | IC50 [6] |
| --- | --- | --- | --- | --- | --- | --- |
| 0.015 µM | 0.021 µM | 0.056 µM | N#CCNC(=O)c1ccc(-c2ccnc(Nc3ccc(N4CCC(c5n[nH]c(=O)o5)CC4)cc3)n2)cc1 [Example 29, N-(cyanomethyl)-4-(2-((4-(4-(5-oxo-4,5-dihydro-1,3,4-oxadiazol-2-yl)piperidin-1-yl)phenyl)amino)pyrimidin-4-yl)benzamide] | 43% | – | – |
| 0.005 µM | 0.005 µM | 0.023 µM | N#CCNC(=O)c1ccc(-c2ccnc(Nc3ccc(N4CCC(N5CCC6(CCCO6)CC5)CC4)cc3)n2)cc1 [Example 24, 4-(2-((4-(4-(1-oxa-8-azaspiro[4.5]decan-8-yl)piperidin-1-yl)phenyl)amino)pyrimidin-4-yl)-N-(cyanomethyl)benzamide] | 41% | – | – |
| – | – | – | N#CCNC(=O)c1ccc(-c2ccnc(Nc3ccc(ON4CCC(N5CCCC5)CC4)cc3)n2)cc1 [compounds 2] | – | < 20 µM | < 1 µM |
